Active and inactive are the calls of the source. Cut-off read from the data, not from the text of the source, for most assays here: actives have a measured EC50 and inactives only a lower limit.
What was measured:
[1] = inhibitors of intracellular T. cruzi replication, confirmation, NIH3T3 host cells, beta-gal luminescence (AID 2044); assay type: functional, cell-based;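 note: intracellular parasites grown in NIH/3T3 mouse fibroblasts as host cells; luminescent beta-galactosidase reporter signal from transgenic T. cruzi replicating inside host cells; inhibitors lower the luminescence signal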
[2] = cytotoxicity toward NIH3T3 fibroblasts, dose response, counter-screen, cell-based, ATP luminescence, mouse fibroblasts (AID 2010); assay type: functional;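 note: cells exposed to compound for about 90 hours before reading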
[3] = biological target: T1, Heat shock factor protein 1 (Mus musculus, UniProt P38532); test: inhibition of MG132-induced HSE-luciferase signal, confirmation, cell-based, NIH3T3, luminescence, dose retest (AID 2382); assay type: functional;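 note: NIH3T3 fibroblasts with HSF1-driven luciferase reporter stressed by proteasome inhibitor MG132; luminescence from HSF1-driven luciferase expression after 8 hours of MG132 stress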
T1 sequence (P38532 whole entry): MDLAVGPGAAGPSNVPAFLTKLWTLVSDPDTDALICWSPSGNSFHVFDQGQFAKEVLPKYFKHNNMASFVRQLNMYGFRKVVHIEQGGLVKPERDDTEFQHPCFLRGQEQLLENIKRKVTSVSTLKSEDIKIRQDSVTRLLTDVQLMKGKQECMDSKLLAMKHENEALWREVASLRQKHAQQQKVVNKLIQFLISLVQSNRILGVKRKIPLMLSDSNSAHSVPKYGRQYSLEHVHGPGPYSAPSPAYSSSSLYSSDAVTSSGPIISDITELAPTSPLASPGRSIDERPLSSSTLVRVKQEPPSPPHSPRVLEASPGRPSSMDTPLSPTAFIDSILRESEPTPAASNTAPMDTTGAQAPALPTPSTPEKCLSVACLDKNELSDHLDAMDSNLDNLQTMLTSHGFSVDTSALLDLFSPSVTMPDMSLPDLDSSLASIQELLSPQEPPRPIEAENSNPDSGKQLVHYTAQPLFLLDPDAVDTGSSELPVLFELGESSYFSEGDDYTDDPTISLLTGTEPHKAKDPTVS

[4] = biological target: T2, Corticotropin-releasing factor receptor 2/Corticotropin-releasing factor-binding protein (Homo sapiens, UniProt P24387+Q13324); test: activators of CRF receptor 2 with binding protein – uHTS hits, confirmation (AID 602473); assay type: functional; conditions: read-out: EC50_Mean
T2 sequence (Q13324 whole entry): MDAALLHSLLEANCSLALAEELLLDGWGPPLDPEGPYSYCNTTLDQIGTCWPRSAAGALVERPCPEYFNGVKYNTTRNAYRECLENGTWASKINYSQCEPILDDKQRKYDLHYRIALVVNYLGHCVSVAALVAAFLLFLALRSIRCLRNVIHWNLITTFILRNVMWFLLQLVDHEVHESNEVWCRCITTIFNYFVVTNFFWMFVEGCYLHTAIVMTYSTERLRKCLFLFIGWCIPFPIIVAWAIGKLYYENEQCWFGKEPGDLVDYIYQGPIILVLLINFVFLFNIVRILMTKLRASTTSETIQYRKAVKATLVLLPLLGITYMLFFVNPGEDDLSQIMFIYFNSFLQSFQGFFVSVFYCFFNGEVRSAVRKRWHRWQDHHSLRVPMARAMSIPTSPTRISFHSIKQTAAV
T2 sequence (P24387 whole entry): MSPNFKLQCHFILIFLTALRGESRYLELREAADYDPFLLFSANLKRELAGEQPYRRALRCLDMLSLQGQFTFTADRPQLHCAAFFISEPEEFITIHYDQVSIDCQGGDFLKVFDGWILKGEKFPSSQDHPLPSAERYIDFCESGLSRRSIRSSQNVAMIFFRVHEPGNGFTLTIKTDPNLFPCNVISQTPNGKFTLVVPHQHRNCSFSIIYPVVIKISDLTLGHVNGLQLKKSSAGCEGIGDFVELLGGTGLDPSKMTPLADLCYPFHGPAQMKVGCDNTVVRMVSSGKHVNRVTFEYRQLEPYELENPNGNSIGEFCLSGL

[5] = Luminescence Cell-Based Dose Retest to Confirm Inhibitors of Cancer Stem Cells. [Related pubchem assays (depositor defined):AID2717, AID2721]; assay type: functional; conditions: Homo sapiens
[6] = growth suppression of PTEN-null colon cells, dose response, cell-based, HCT116 PTEN knockout (AID 1047); assay type: functional;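 note: HCT116 colon tumor cells with PTEN knocked out; cells exposed to compound for 60 hours before readout; potency for loss of cell viability measured by luminescence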
[7] = growth suppression of beta-catenin-knockout colon cells, dose response, cell-based, HCT116, human colon tumor (AID 1045); assay type: functional;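 note: HCT116 colon tumor cells with beta catenin knocked out; cells exposed to compound for 60 hours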
[8] = system: Streptococcus sp. 'group A'; test: growth inhibition of control SK(-) GAS strain, dose response, counter-screen for streptokinase expression inhibitor project, luminescence, kanamycin, BacTiterGlo, confirmation (AID 1900); assay type: functional, organism-based
Streptococcus = test: Group A Streptococcus viability loss, dose response, counter-screen for streptokinase expression inhibitor project, luminescence, BacTiterGlo (AID 1915); assay type: functional, organism-based;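 note: potency for reduction of bacterial viability or growth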
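Throughout, for AC50: cells exposed to compound for roughly 70 hours or longer before luminescence read.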

## Cc1cccc(C)c1N=C(S)N(Cc1ccccc1)Cc1cccnc1
[1]
  EC50: 1.46 µM (active)
[2]
  EC50: > 60 µM (not active)

## CC1CCN(CC(=O)NC2CCCCC2)CC1
[3]
  EC50: > 195 µM (not active)

## COc1ccc(-c2nc3ccccc3c(=O)n2-c2cccnc2)cc1
[3]
  EC50: > 195 µM (not active)

## CCCNC(=O)Cn1c(=O)/c(=C/c2ccc(-c3ccc([N+](=O)[O-])cc3)o2)s/c1=C\C(=O)C(C)(C)C
[4]
  EC50: 2.05 µM (active)

## Cc1ccc(-n2c(SCC(=O)N3c4ccccc4Sc4ccccc43)nnc2-c2ccncc2)cc1
[1]
  EC50: 0.345 µM (active)
[2]
  EC50: > 60 µM (not active)

## CCOC(=O)c1c(NC(=O)Cc2ccccc2)sc2c1CCN(C)C2
[1]
  EC50: 0.109 µM (active)
[2]
  EC50: > 60 µM (not active)

## O=c1cc(N2CCCCC2)c(-c2ccccc2)nn1Cc1cccc(Cl)c1
[5]
  AC50: 3.6 µM (active)

## O=C(CCc1ccccc1)Nc1ncc([N+](=O)[O-])s1
[1]
  EC50: 0.951 µM (active)
[2]
  EC50: > 60 µM (not active)

## Clc1cccc(Nc2nc(-c3cccnc3)cs2)c1
[1]
  EC50: 1.23 µM (active)
[2]
  EC50: > 60 µM (not active)

## CCN1CC2([N+](=O)[O-])C=CC(=O)C([N+](=O)[O-])(C1)C2CC(=O)c1ccccc1 (stereo not drawn)
[3]
  EC50: > 195 µM (not active)

## COc1ccc2c(c1)C=C(CN1CCN(Cc3ccccc3C)C(CCO)C1)CO2 (stereo not drawn)
[1]
  EC50: 0.391 µM (active)
[2]
  EC50: > 30 µM (not active)

## COc1ccc(Cl)cc1NC(=O)CN(C)C(=O)Cn1cnc2c1c(=O)n(C)c(=O)n2C
[3]
  EC50: > 195 µM (not active)

## CCOC(=O)Cn1c(COc2ccccc2OC)[n+](C)c2ccccc21
[3]
  EC50: > 195 µM (not active)

## CN(C(=O)CSc1nc(C2CC2)nc2ccccc12)c1nc(-c2ccccc2)cs1
[6]
  EC50: 14.7 µM (active)
[7]
  EC50: 12.7 µM (active)

## COc1ccccc1-n1c(S)nnc1CNC(=O)c1cccc([N+](=O)[O-])c1C
[3]
  EC50: > 195 µM (not active)

## O=C(Cc1csc(Nc2nc(S)nc3ccccc23)n1)NCCCN1CCN(c2cccc(Cl)c2)CC1
[8]
  EC50: 8.14 µM (active)
Streptococcus
  EC50: > 150 µM (not active)

## CC1CC1C(=O)N1CCN(S(=O)(=O)c2cc(C(F)(F)F)cc(C(F)(F)F)c2)CC1 (stereo not drawn)
[5]
  AC50: 2.76 µM (active)

## Cc1nnsc1[S+]([O-])c1ccc(Cl)c(Cl)c1 (stereo not drawn)
[3]
  EC50: 12.4 µM (active)

## Cc1cccc(NC(=O)CSCC(=O)Nc2cc(Cl)ccc2N2CCN(C)CC2)c1
[1]
  EC50: 2.41 µM (active)
[2]
  EC50: > 60 µM (not active)

## CC1(c2ccc(OC(F)F)cc2)NC(=O)N(CC(=O)c2ccc3c(c2)OCO3)C1=O (stereo not drawn)
[4]
  EC50: 5.4 µM (active)

## O=C(N/N=C/c1cc(Br)cc(Br)c1O)c1cccc(S(=O)(=O)N2CCOCC2)c1
[8]
  EC50: 0.765 µM (active)
Streptococcus
  EC50: 3.91 µM (active)

## O=C(c1cccc([N+](=O)[O-])c1)N1CCN(c2cccc(Cl)c2)CC1
[6]
  EC50: 4.8 µM (active)
[7]
  EC50: 5.22 µM (active)

## O=C(CCCNC1=NS(=O)(=O)c2ccccc21)OCC(=O)c1ccc(F)c(F)c1
[4]
  EC50: 7.63 µM (active)

## CC1(C)C(=O)N(c2ccccc2)C1c1ccccc1O (stereo not drawn)
[5]
  AC50: 2.95 µM (active)

## Cc1cc(C)nc(NC(=NC(=O)C(C)(C)C)NCCc2c[nH]c3ccccc23)n1
[1]
  EC50: 2.34 µM (active)
[2]
  EC50: > 60 µM (not active)

## CN(C)c1ccc(CNc2ccc3c(c2)ncn3C(C)(C)C)cc1
[3]
  EC50: 169 µM (active)

## Cc1cc(Br)c(NC(=O)CN2CC=C(c3ccccc3)CC2)c(Br)c1
[1]
  EC50: 0.255 µM (active)
[2]
  EC50: > 60 µM (not active)

## Cc1cc(=O)oc2cc(OCC#N)ccc12
[3]
  EC50: > 195 µM (not active)

## COc1ccc(C(=O)C2CCCN(C3CSCCSC3)C2)c(OC)c1 (stereo not drawn)
[5]
  AC50: 0.939 µM (active)

## COC(=O)NC(=S)Nc1ccc(Oc2ccc(Cl)cc2Cl)c(Cl)c1
[1]
  EC50: 1.83 µM (active)
[2]
  EC50: > 60 µM (not active)

## COc1ccc(CN(C(=O)Cc2cccs2)C(C(=O)NC2CCCC2)c2ccncc2)cc1 (stereo not drawn)
[1]
  EC50: 2.22 µM (active)
[2]
  EC50: 50.8 µM (active)

## Cc1cccc(Oc2cc(NC(=O)Cn3cnc([N+](=O)[O-])n3)cc([N+](=O)[O-])c2)c1
[6]
  EC50: 36.1 µM (active)
[7]
  EC50: 28.7 µM (active)

## COc1cc(OC)c(OC)cc1CN1CCCC(C(=O)c2ccccc2SC)C1 (stereo not drawn)
[1]
  EC50: 0.138 µM (active)
[2]
  EC50: > 60 µM (not active)

## Cc1cccc(NC(=O)c2cc(-c3cc(C)cc(C)c3O)[nH]n2)c1
[5]
  AC50: 2.86 µM (active)

## CCOC(=O)c1c(NC(=O)c2nn(CC)cc2Br)sc2c1CCCCC2
[5]
  AC50: 1.12 µM (active)

## CC1CC(C)CN(S(=O)(=O)c2ccc(C(=O)Nc3nnc(C4CC4)o3)cc2)C1 (stereo not drawn)
[8]
  EC50: 1.25 µM (active)
Streptococcus
  EC50: 5.33 µM (active)

## CCN(Cc1ccccc1)C(=O)C1CCN(Cc2sccc2C)CC1
[3]
  EC50: > 195 µM (not active)

## COc1ccc(CN2CCN(Cc3ccc(C)cc3)CC2)c(OC)c1
[1]
  EC50: 0.22 µM (active)
[2]
  EC50: > 60 µM (not active)

## COc1cc(C2SCC(=O)N2CCCN(C)C)cc(OC)c1OC (stereo not drawn)
[1]
  EC50: 0.264 µM (active)
[2]
  EC50: > 60 µM (not active)

## O=C(Nc1ccc(Cl)c(Cl)c1)Nc1cc(S(=O)(=O)N2CCOCC2)ccc1N1CCCC1
[6]
  EC50: 22.5 µM (active)
[7]
  EC50: 20.3 µM (active)

## CN(C)c1nc(NCc2ccccc2)nc(SCC(=O)Nc2ccc(Cl)c(Cl)c2)n1
[1]
  EC50: 2.15 µM (active)
[2]
  EC50: > 60 µM (inconclusive)

## CCc1cc2c(NCCC(=O)O)nc(C)nc2s1
[3]
  EC50: > 195 µM (not active)

## COc1ccc(C2=NN(CN3C(=O)C(=O)c4ccccc43)C(c3ccc(Br)cc3)C2)cc1 (stereo not drawn)
[6]
  EC50: 27.3 µM (active)
[7]
  EC50: 26.2 µM (active)

## CC(NC(=O)c1cccnc1)C(c1cccs1)N1CCOCC1 (stereo not drawn)
[1]
  EC50: > 60 µM (not active)
[2]
  EC50: > 60 µM (not active)

## COc1ccc(N2CCN(c3ncnc4scc(-c5ccc(C)cc5)c34)CC2)cc1
[1]
  EC50: 2.69 µM (active)
[2]
  EC50: > 60 µM (not active)

## Cn1c(NC(=O)c2ccccc2NC(=O)C(C)(C)C)nc2ccccc21
[3]
  EC50: > 195 µM (not active)

## CCCCCn1nc(C)c(/C=N\NC(=O)c2cc(C)oc2C)c1C
[4]
  EC50: > 53 µM (inactive)

## Nc1ccc(C23CC4CC(CC(O)(C4)C2)C3)cc1
[3]
  EC50: 41.2 µM (active)

## O=C(Nc1cc(C(F)(F)F)ccc1Cl)c1cccnc1
[4]
  EC50: > 53 µM (inactive)

## CCn1c(=O)c2c3c(sc2n2cnnc12)CCC3
[3]
  EC50: > 195 µM (not active)

## Cc1ccc(C(C(=O)NCc2ccco2)N(C(=O)CNC(=O)c2cccs2)c2c(C)cccc2C)cc1 (stereo not drawn)
[6]
  EC50: 6.55 µM (active)
[7]
  EC50: 8.32 µM (active)

## CCC(O)(CC)C(=O)N/N=C/c1cc(Br)cc(Br)c1O
[5]
  AC50: 12.6 µM (active)
[8]
  EC50: 2.9 µM (active)
Streptococcus
  EC50: 3.08 µM (active)

## Cc1cccc(C)c1OCc1cc(C(=O)N2C[C@@H]3C[C@H]4C[C@@H](C3)C[C@@H]2C4)no1
[5]
  AC50: 1.27 µM (active)

## COc1ccc2nc(Cl)c(C#N)cc2c1
[3]
  EC50: > 195 µM (not active)

## O=[N+]([O-])c1cn(-c2nc(-c3ccco3)cc(C(F)(F)F)n2)cn1
[1]
  EC50: 0.723 µM (active)
[2]
  EC50: > 30 µM (not active)

## O=C(CCCCn1c(=O)[nH]c2ccsc2c1=O)NCc1cccnc1
[3]
  EC50: > 195 µM (not active)

## C=CCOCCN(CCOCC=C)C1=NS(=O)(=O)c2ccccc21
[3]
  EC50: > 195 µM (not active)

## COc1cc2c(cc1OC)C(c1cc3cccc(C)c3nc1O)N(C(=O)c1ccco1)CC2 (stereo not drawn)
[1]
  EC50: 3.44 µM (active)
[2]
  EC50: 10.5 µM (active)

Source: ChEMBL document CHEMBL1201862, “PubChem BioAssay data set” (2004)
